Results on three molecules are retold here after ChEMBL document CHEMBL3714731, “Heterocyclic compounds for the inhibition of pask” (2014).

By IC50 is commonly meant the point on the concentration scale where inhibition reaches its midpoint.

Experiment [1] concerns the target T1, PAS domain-containing serine/threonine-protein kinase (Homo sapiens, UniProt Q96RG2). Briefly: Inhibition of N-terminal GST-tagged human recombinant PASK kinase domain (879 to 1323 residues) expressed in insect cells using MBP protein substrate incubated for 120 mins in presence of [33P]ATP by scintillation counting based radiochemical assay.
Experiment [2] concerns the target Casein kinase II subunit alpha' (Homo sapiens, UniProt P19784). The experiment in a line: Inhibition of GST-tagged full-length purified human CK2a2 using RRRDDDSDDD substrate incubated for 120 mins in presence of [33P]ATP by scintillation counting based biochemical assay.
The target of experiment [3] is Serine/threonine-protein kinase pim-1 (Homo sapiens, UniProt P11309). The experiment in a line: Inhibition of human full-length 6xHis-tagged PIM1 expressed in insect cells using S6K1Rsk2 peptide-2 substrate in presence of [33P]ATP incubated for 120 mins by scintillation counting based biochemical assay.
Experiment [4] deals with T1, PAS domain-containing serine/threonine-protein kinase. Briefly: Inhibition of human recombinant PASK using Ulight-peptide substrate incubated for 2 hrs by TR-FRET assay. In general terms: Time-resolved FRET reads energy transfer from a long-lived donor to a nearby acceptor.

T1 sequence (Q96RG2 whole entry, the tested form may be a part): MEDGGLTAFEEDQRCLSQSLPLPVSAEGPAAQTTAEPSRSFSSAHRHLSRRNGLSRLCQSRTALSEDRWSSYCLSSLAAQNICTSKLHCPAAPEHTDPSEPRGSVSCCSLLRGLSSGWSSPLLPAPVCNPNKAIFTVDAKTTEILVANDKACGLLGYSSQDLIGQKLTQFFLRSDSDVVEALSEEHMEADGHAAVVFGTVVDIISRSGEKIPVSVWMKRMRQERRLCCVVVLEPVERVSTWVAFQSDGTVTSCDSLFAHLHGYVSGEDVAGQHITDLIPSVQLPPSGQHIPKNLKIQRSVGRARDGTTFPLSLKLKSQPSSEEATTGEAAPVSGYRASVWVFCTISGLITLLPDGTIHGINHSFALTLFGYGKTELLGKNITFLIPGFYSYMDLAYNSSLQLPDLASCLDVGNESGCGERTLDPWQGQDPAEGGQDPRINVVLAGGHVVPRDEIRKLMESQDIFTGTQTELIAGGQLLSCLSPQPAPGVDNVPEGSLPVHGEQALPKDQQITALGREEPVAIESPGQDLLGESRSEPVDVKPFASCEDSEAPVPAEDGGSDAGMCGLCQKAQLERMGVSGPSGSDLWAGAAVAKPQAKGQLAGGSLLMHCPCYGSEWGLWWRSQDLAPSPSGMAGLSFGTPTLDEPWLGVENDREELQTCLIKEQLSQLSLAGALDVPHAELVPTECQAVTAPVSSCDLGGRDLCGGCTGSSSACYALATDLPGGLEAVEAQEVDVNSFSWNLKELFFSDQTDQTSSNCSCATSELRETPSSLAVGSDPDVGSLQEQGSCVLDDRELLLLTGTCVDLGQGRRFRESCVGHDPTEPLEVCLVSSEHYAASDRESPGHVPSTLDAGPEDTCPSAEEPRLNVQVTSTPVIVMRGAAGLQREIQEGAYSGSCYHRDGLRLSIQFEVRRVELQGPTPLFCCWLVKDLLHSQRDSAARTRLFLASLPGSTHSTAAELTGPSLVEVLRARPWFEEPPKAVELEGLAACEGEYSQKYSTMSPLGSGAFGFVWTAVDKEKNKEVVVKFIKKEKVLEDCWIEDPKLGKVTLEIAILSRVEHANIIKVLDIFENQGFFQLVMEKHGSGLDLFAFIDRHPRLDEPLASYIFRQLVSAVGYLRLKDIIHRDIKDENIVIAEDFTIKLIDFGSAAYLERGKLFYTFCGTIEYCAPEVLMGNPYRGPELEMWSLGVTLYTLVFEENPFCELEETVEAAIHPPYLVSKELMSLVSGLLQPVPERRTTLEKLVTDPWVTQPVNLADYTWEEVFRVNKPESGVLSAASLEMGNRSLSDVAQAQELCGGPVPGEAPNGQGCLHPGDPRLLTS
Serine/threonine-protein kinase pim-1, sequence (P11309 whole entry, the tested form may be a part): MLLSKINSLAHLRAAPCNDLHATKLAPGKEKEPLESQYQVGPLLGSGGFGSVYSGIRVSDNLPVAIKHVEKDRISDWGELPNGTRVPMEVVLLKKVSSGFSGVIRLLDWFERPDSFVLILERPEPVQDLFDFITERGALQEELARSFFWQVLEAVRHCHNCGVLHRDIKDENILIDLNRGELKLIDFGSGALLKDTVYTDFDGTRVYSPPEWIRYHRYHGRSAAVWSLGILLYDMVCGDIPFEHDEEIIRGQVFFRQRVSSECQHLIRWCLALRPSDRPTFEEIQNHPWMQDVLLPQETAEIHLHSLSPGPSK
Casein kinase II subunit alpha', sequence (P19784 whole entry): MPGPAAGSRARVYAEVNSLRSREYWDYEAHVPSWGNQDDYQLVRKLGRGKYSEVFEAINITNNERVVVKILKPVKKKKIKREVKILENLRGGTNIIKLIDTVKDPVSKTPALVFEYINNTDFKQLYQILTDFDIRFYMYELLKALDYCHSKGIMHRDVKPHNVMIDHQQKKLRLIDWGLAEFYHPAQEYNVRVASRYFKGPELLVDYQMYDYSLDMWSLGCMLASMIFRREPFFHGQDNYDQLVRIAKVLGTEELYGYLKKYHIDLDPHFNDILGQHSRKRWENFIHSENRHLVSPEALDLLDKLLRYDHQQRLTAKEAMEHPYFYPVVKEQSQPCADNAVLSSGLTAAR

Consider `COc1cc(-c2cc(=O)n3ncc(CC#N)c3[nH]2)ccc1Cl`, for which the IC50 in experiment [1], in experiment [2] and in experiment [3] was at most 10 µM in each case.

Turning to `CCc1cnc(-c2cnn3c(=O)cc(-c4ccc5c(cnn5CC)c4)[nH]c23)o1`, the IC50 in experiment [1], in experiment [2] and in experiment [3] was at most 10 µM in each case.

`Cc1coc(-c2cnn3c(=O)cc(-c4ccc5[nH]ncc5c4)[nH]c23)n1`: the IC50 in experiment [4] is at most 10 µM.
